Assay type in all cases: cell-based, human
The test system of test [1] is mesenchymal stem cells (MSC). The experiment in a line: MTS cell viability assay, mesenchymal stem cells. As to conditions: 72 h, estimated, >>10 indicates no cell death observed at any of the concentrations tested. The text has this: (§1) The generation and characterization of our GSC lines (Glio3, Glio9, Glio38) have been previously described. In brief, following patient consent, the resected tumors were mechanically and enzymatically dissociated, and red blood cells were removed using Red Cell Lysis buffer (SigmaAldrich, St. Louis, MO, USA). Cells were filtered and plated in a 3:1 ratio of Dulbecco’s Modified Eagle’s medium (DMEM): F12 (Gibco, Carlsbad, CA, USA) media supplemented with 1% penicillin and streptomcycin (penn/strep), 20 ng/mL each of human epidermal growth factor and human fibroblast growth factor, and 2% Gem21 NeuroPlex Serum-Free Supplement (Gemini Bioscience, Sacramento, CA, USA); a formulation consistent for the generation of GBM stem cell lines. Both Glio3 and Glio38 were derived from tumors prior to drug or radiation therapy and grow as neurospheres, whereas Glio9 was derived from a recurrent tumor, following chemo and radiotherapy, and grows adherent. The GBM cell line U87 MG (U87), purchased from ATCC (Manassas, VA, USA) and the pediatric GBM cell line SJ-GBM2 was obtained from Children’s Oncology Group. SJ-GBM2 cell line was derived from a child with glioblastoma post therapy and is used as part of a National Cancer Institute pediatric pre-clinical testing program. Both lines were maintained in RPMI media supplemented with 10% FBS and 1% penn/strep. Mesenchymal stem cells (MSCs) originally derived from human bone marrow aspirates were obtained from Thermo Fisher Scientific and maintained in MEM alpha supplemented with 20% FBS and 1% penn/strep. Prior to drug treatment, MSCs were moved to media with 10% FBS. Upon receipt U87, SJ-GBM2 and MSCs were immediately expanded with several aliquots frozen down for future use. These cell lines are not listed on the most recent NCBI database for misidentification and contamination of human cell lines. All cell lines were routinely tested for mycoplasma using LookOut mycoplasma PCR detection kit (Sigma-Aldrich, St. Louis, MO, USA) according to the manufacturer’s instructions and were maintained at 37 °C in a humidified 5% CO2 incubator.
(§2) The chalcones were dissolved in dimethyl sulfoxide (DMSO) at a concentration of 10 mM, vortexed and subsequently diluted to obtain 1 mM and 0.1 mM stock concentrations. C-dot-trans-chalcones were resuspended in supplement-free media (3:1 ratio DMEM/F12 for GSC experiments or RPMI for non-stem cell line experiments). Cell viability in response to drug treatment was determined using CellTiter 96 AQueous One Solution Cell Proliferation Assay, a colorimetric MTS assay kit (Promega, Madison, WI, USA). The GSCs were seeded into 96-well plates using modified neurosphere media containing 5% FBS at a density of 10,000 cells per well. MSCs and U87 cells were plated at 5000 cells/well while SJ-GBM2 cells were plated at 10,000 cells/well. The next day cells were treated with increasing concentrations of chalcones or C-dot-chalcone conjugate. Next, 72 h later, media was aspirated and 100 μL of a 1:5 solution of MTS to cell culture media was added to each well and incubated for 1–4 h. Optical density was measured at 490 nm using BioTek Synergy HT plate reader. Viability of drug treated cells is expressed as the percent viable cells relative to non-treated cells (100% viability). Experiments were done in triplicate.

The subject of test [2] is Glio9. Put plainly: MTS cell viability assay, GSC line Glio9. As to conditions: 72 h, MTS, ±SEM, read-out: Glio9 IC50.
Source text: as §1, §2
Background: Formazan colour is commonly taken as a measure of viable cells.

In test [3] the test system is Glio3. The experiment in a line: MTS cell viability assay, GSC line Glio3. As to conditions: 72 h, MTS, ±SEM, read-out: Glio3 IC50.
Source text: as §1, §2

Test [4] deals with Glio38. The experiment in a line: MTS cell viability assay, GSC line Glio38. As to conditions: 72 h, MTS, ±SEM, read-out: Glio38 IC50.
Source text: as §1, §2

Test [5] deals with GSC lines Glio3, Glio9 and Glio38. The experiment in a line: MTS cell viability assay, all three GSC lines together. Particulars: for IC50: 72 h.
Source text: as §1, §2

Test [6] concerns U87. Put plainly: MTS cell viability assay, U87. Particulars: 72 h. From the text: The generation and characterization of our GSC lines (Glio3, Glio9, Glio38) have been previously described. In brief, following patient consent, the resected tumors were mechanically and enzymatically dissociated, and red blood cells were removed using Red Cell Lysis buffer (SigmaAldrich, St. Louis, MO, USA). Cells were filtered and plated in a 3:1 ratio of Dulbecco’s Modified Eagle’s medium (DMEM): F12 (Gibco, Carlsbad, CA, USA) media supplemented with 1% penicillin and streptomcycin (penn/strep), 20 ng/mL each of human epidermal growth factor and human fibroblast growth factor, and 2% Gem21 NeuroPlex Serum-Free Supplement (Gemini Bioscience, Sacramento, CA, USA); a formulation consistent for the generation of GBM stem cell lines. […]
The chalcones were dissolved in dimethyl sulfoxide (DMSO) at a concentration of 10 mM, vortexed and subsequently diluted to obtain 1 mM and 0.1 mM stock concentrations. […] Cell viability in response to drug treatment was determined using CellTiter 96 AQueous One Solution Cell Proliferation Assay, a colorimetric MTS assay kit (Promega, Madison, WI, USA). […] Optical density was measured at 490 nm using BioTek Synergy HT plate reader. Viability of drug treated cells is expressed as the percent viable cells relative to non-treated cells (100% viability). […]

Test [7] has as its system Glio38. The experiment in a line: Sphere forming assay, Glio38. Particulars: 100 nM alone, vs non-treated controls. As for the experimental part:
(§3) The effect of chalcones’ clonogenic growth potential was determined using sphere-forming assays. Glio3 and Glio38 neurosphere cell lines were dissociated using Accutase (Gemini Bioscience, Sacramento, CA, USA), filtered using 40-micron filter and single cells were seeded at approximately 50 cells per well in a 96-well plate. Cells were treated with 0.1, 0.25 or 0.5 μM of chalcone or 0.01, 0.05 or 0.1 μM of C-dot chalcone conjugate on day 0 and spheres were manually counted under microscopy on day 14. All experiments were done in triplicate. Representative images were obtained using EVOS XL Core light microscope (Thermo Fisher Scientific, Waltham, MA, USA).

In test [8] the test system is Glio3. The experiment in a line: Sphere forming assay, Glio3. As to conditions: 100 nM alone, vs non-treated controls. As for the experimental part: as §3
[9] abbreviates: Homo sapiens, Mesenchymal stem cells.
Where [10] appears, read: Homo sapiens, average of Glio3, Glio9, Glio38, read-out: average IC50 across the 3 GSC lines.
Setting [11] is: Homo sapiens, in all three GSC lines, read-out: IC50 in all GSC lines (bound stated in text).
Where [12] appears, read: average of Glio3, Glio9, Glio38, read-out: average IC50 across the 3 GSC lines.

Where “and” joins values, the source holds several entries; their conditions need not be identical. Equal entries are not always repeated. Where two headings read alike, the source gives them in different places.

In the case of `Nc1ccc(C(=O)/C=C/c2cccc(F)c2)cc1` [Chalcone 3u], the IC50 (as a rule, the concentration at which inhibition is half-maximal) in test [1] (setting [9]) was 15.6 µM; in test [2] (Homo sapiens) it was 7.2 ± 0.6 µM; in test [3] (Homo sapiens), 9.9 ± 0.3 µM; in test [4] (Homo sapiens), 8.8 ± 1.4 µM; in test [5] (setting [10]) it was 8.6 µM; in test [5] (setting [11]), less than 10 µM.

As for `Nc1ccc(C(=O)/C=C/c2ccc(Cl)cc2)cc1` [Chalcone 3w], the IC50 in test [1] (setting [9]) was 80.1 µM; in test [2] (Homo sapiens), 7 ± 0.3 µM; in test [3] (Homo sapiens) it was 12.3 ± 1.1 µM; in test [4] (Homo sapiens) it was 7.9 ± 0.6 µM; in test [5] (setting [10]) it was 9.1 µM; in test [5] (setting [11]), less than 15 µM.

With 3,5-dimethoxy chalcone [Chalcone 3f], the IC50 in test [1] was 74.8 µM; in test [2], 9.7 ± 2 µM; in test [3] it was 7.8 ± 0.9 µM; in test [4], 6.5 ± 0.9 µM; in test [6], 8.5 ± 0.04 µM; in test [5] (setting [12]) it was 8.2 ± 0.8 µM.

Regarding “transferrin: transferrin alone, targeting ligand used in the conjugates”, the neurosphere formation entry in test [7] and in test [8] was “neither c-dots or transferrin alone significantly reduced neurosphere formation” in each case.

In the case of `Nc1ccc(C(=O)/C=C/c2cccc(Br)c2)cc1` [Chalcone 3x], the IC50 in test [1] (setting [9]) was 28.1 µM; in test [2] (Homo sapiens), 7 ± 0.5 µM; in test [3] (Homo sapiens), 9.3 ± 1.1 µM; in test [4] (Homo sapiens), 5.9 ± 0.8 µM; in test [5] (setting [10]), 7.4 µM; in test [5] (setting [11]), less than 10 µM.

Take `COc1cc(/C=C/C(=O)c2ccc(O)cc2)cc(OC)c1` [Chalcone 4b]: the IC50 in test [1] (setting [9]) was 17.1 µM; in test [2] (Homo sapiens), 7 ± 0.4 µM; in test [3] (Homo sapiens) it was 6.7 ± 0.2 µM; in test [4] (Homo sapiens), 6.4 ± 0.4 µM; in test [5] (setting [11]), less than 10 µM.

Regarding 3,4,5-trimethoxy chalcone [Chalcone 3e], the IC50 in test [1] is 46.7 µM; in test [1] (listed as 4′-amino-trimethoxy chalcone), roughly 50 µM; in test [2], 8.9 ± 1.6 µM; in test [3] it was 10.9 ± 0.8 µM; in test [4], 9.2 ± 0.8 µM; in test [5] (setting [12]) it was < 10 µM and 9.7 µM. The IC50 in test [5] (in all three GSC lines, read-out: IC50 in all GSC lines (bound stated in text)) is less than 15 µM.

In the case of `Nc1ccc(C(=O)/C=C/c2ccccn2)cc1` [Chalcone 3q], the IC50 was greater than 10 µM in test [1]; 6.6 ± 0.5 µM in test [2]; 8.3 ± 0.7 µM in test [3]; 6.6 ± 0.7 µM in test [4]; 7.2 ± 0.5 µM in test [5] (setting [12]).

For the compound `COc1ccc(OC)c(/C=C/C(=O)c2ccc(NC(C)=O)cc2)c1` [Chalcone 3d], the concentration for half-maximal inhibition (IC50) in test [1] (setting [9]) is 16.8 µM; in test [2] (Homo sapiens), 5.5 ± 1.1 µM; in test [3] (Homo sapiens), 6.9 ± 1.6 µM; in test [4] (Homo sapiens) it was 7.9 ± 1.7 µM; in test [5] (setting [11]), less than 10 µM. Besides, the “activity against GSCs” value in test [5] (at the concentrations tested) is given as “active”.

For `COc1cc(/C=C/C(=O)c2ccc(OC(C)=O)cc2)cc(OC)c1OC` [Chalcone 4d], the half-maximal inhibitory concentration (IC50) was greater than 10 µM in test [1] (setting [9]); 6.2 ± 0.9 µM in test [2] (Homo sapiens); 7.7 ± 0.4 µM in test [3] (Homo sapiens); 6.9 ± 0.3 µM in test [4] (Homo sapiens); less than 10 µM in test [5] (setting [11]).

On to `Nc1ccc(C(=O)/C=C/c2ccccn2)cc1` [Chalcone 3p], for which the IC50 in test [1] (setting [9]) was 8 µM; in test [2] (Homo sapiens), 5.2 ± 0.5 µM; in test [3] (Homo sapiens), 6.6 ± 1.2 µM; in test [4] (Homo sapiens), 6.4 ± 2 µM; in test [5] (setting [10]), 6.1 ± 0.4 µM; in test [5] (setting [11]) it was less than 10 µM.

On to `Nc1ccc(C(=O)/C=C/c2cccc(Cl)c2)cc1` [Chalcone 3v], for which the IC50 is 25.7 µM in test [1] (setting [9]); 5.8 ± 0.9 µM in test [2] (Homo sapiens); 9.1 ± 0.6 µM in test [3] (Homo sapiens); 6.7 ± 0.6 µM in test [4] (Homo sapiens); 7.2 µM in test [5] (setting [10]); less than 10 µM in test [5] (setting [11]).

For `COc1ccc(OC)c(/C=C/C(=O)c2ccc(N)cc2)c1` [Chalcone 3c], the IC50 was greater than 10 µM in test [1] (setting [9]); 9.3 ± 0.6 µM in test [2] (Homo sapiens); 12 ± 1.8 µM in test [3] (Homo sapiens); 10.4 ± 2 µM in test [4] (Homo sapiens); less than 15 µM in test [5] (setting [11]).

Source of the values: article PMC9316063, “Chalcones as Anti-Glioblastoma Stem Cell Agent Alone or as Nanoparticle Formulation Using Carbon Dots as Nanocarrier” (Pharmaceutics, 2022).
